Columns and labels:
[1] = system: WIL2S and RAJI cells transduced to express human B7-H4; assay: CDC, Sytox Green, 10% human serum; assay type: cell-based
Method: Antibodies have the ability to recruit complement proteins triggering complement-dependent cytotoxicity (CDC).
Using complement media (RPMI containing 10% human serum (Complement Technology, Inc. #NHS)), test antibodies and controls were titrated with a 3-fold dilution ranging from 50-0.02 μg/mL and 100 μL/well of the titrations were plated over the target cells. To measure total cell death, 2% Triton X (EMD Millipore Corp. #648463-50ML) was used as a positive control. Test plate was incubated for 2 hours at 37° C. in a humidity-controlled incubator and then Sytox Green fluorescence was read on an Envision plate reader.

[2] = system: MDA-MB-468 xenograft tumors; assay: Gene ontology (GO) term analysis of treated MDA-MB-468 xenograft tumors; assay type: in vivo, NSG mice
Method: For RNAseq, RNA was extracted from tumors and library preparation for […] sequencing was performed using PolyA selection. RNA was sequenced using the Illumina HiSeq platform 2×150 bp configuration. RNA extraction, library preparation, and sequencing were performed by GENEWIZ. Adaptors were trimmed using cutadapt version 1.16, reads were aligned to a composite (GRCh38(h38)/GRCm38(mm10)) genome using STAR version 2.5.2. Transcripts and genes were quantitated via RSEM version 1.2.31. Quantitative and statistical differences were determined between groups of samples using DESeq2 version 1.28.1. GO term and gene set enrichment analysis was performed with clusterProfiler version 3.16.1, msigdbr version 7.1.1, AnnotationDbi version 1.50.3, org.Mm.eg.db version 3.11.4, and org.Hs.eg.db version 3.11.4. […] Only GO terms with a p-value and q-value of 0.05 or less were retained. Figures were replotted using GraphPad Prism. The raw fastq files as well as the mapped BAM files are stored on the Seagen linux storage location: /fc1/jobs/research/RNASeq/.

FcγRI = biological target: T1, FcγRI (Homo sapiens, UniProt P12314); assay: FcγR Jurkat NFAT-luciferase reporter cell assay with SKBR3 target cells; assay type: cell-based
T1 construct: expressed in transfected cells; host or cells: Jurkat (NFAT-luciferase reporter)
Method: (§1) Cellular FcγR signaling was measured in a cell-based assay that uses SKBR3 target cells that endogenously express B7-H4 and Jurkat effector cells engineered to express FcγRI, RIIa, or RIII and an NFAT (nuclear factor of activated T cells) driven luciferase reporter gene. […] The luciferase signal is proportional to the degree of FcγR-induced effector cell activation and serves as a surrogate for ADCC (FcγRIII) or ADCP (FcγRI/IIa).
(§2) Specifically, Jurkat effector cells engineered to express FcγRI, RIIa, or RIII and an NFAT (nuclear factor of activated T cells) driven luciferase reporter gene were thawed and cultured in NFAT reporter cell medium (RPMI 1640 Medium (Gibco #11875-093) supplemented with 4% HyClone™ Fetal Bovine Serum, Super Low IgG (Gibco #A33819-01), 1× Penicillin-Streptomycin (Gibco #15140-122), 1×MEM nonessential amino acids (Gibco #11140-050), 1× L-Glutamine (Gibco #25030-081), 1× Sodium pyruvate (Gibco #11360-070), Hygromycin (Invitrogen #10687), Antibiotic G-418 sulfate solution (Promega #V8091), HEPES (Gibco #15630)). The Jurkat FcγR signaling assay was then performed as follows:
(§3) The day before the assay, target SKBR3 cells were lifted using Versene (Gibco #15040-066), washed twice with PBS, and plated at 1.2×10^4 cells per well in 90 μL RPMI 1640 containing 10% low IgG FBS and penicillin/streptomycin in black-walled 96-well plates (Corning #3603). The following day, NFAT assay buffer was prepared by adding 4 mL low IgG serum to 100 mL of RPMI 1640, mixed, and warmed to 37° C. NFAT assay buffer was used to resuspend all cells and antibody dilutions. Stock dilution plates (10×) of each antibody were prepared at 100, 30, 10, 3, 1, 0.3, 0.1, 0.03, 0.01, and 0.003 μg/mL. […] Effector cells were counted, washed twice in PBS, and resuspended at 1×10^6 cells/mL in NFAT assay buffer. […] Luminescence was measured for all samples with the Envision 96 CTG protocol (Envision plate reader, PerkinElmer) after mixing on a shaker (covered with foil) for at least 5 minutes. Background (no cells) signal was subtracted from the raw luminescence signal prior to graphing.

FcγRIIa = biological target: T2, FcγRIIa (Homo sapiens, UniProt P12318); assay: as above; assay type: cell-based
T2 construct: expressed in transfected cells; host or cells: Jurkat (NFAT-luciferase reporter)
T2 sequence (P12318 34-317): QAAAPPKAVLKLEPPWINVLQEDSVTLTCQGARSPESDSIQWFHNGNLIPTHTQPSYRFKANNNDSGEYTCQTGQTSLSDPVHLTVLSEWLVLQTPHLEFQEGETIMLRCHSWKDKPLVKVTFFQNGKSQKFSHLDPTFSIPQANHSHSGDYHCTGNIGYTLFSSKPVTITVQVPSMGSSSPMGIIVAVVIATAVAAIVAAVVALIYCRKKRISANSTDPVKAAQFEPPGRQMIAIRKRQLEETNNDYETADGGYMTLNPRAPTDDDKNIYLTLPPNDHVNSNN
Method: as §1, §2, §3

FcγRIII = biological target: T3, FcγRIII (Homo sapiens, UniProt P08637); assay: as above; assay type: cell-based
T3 construct: expressed in transfected cells; host or cells: Jurkat (NFAT-luciferase reporter)
Method: as §1, §2, §3

[3] = biological target: T4, recombinant human B7-H4 protein (Homo sapiens, UniProt Q7Z7D3); assay: BLI binding to recombinant human B7-H4 (monovalent and bivalent formats); conditions: mAb compared with ADC
T4 construct: B7-H4 extracellular domain Phe29-Ala258 with a C-terminal 10-His tag
T4 sequence (Q7Z7D3 29-258): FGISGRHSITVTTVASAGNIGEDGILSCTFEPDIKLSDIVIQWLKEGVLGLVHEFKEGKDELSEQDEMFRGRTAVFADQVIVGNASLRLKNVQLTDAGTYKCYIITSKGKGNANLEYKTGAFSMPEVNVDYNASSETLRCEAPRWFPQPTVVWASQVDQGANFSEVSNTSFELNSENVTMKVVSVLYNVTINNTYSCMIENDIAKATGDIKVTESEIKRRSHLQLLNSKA

T1 sequence (P12314 16-374): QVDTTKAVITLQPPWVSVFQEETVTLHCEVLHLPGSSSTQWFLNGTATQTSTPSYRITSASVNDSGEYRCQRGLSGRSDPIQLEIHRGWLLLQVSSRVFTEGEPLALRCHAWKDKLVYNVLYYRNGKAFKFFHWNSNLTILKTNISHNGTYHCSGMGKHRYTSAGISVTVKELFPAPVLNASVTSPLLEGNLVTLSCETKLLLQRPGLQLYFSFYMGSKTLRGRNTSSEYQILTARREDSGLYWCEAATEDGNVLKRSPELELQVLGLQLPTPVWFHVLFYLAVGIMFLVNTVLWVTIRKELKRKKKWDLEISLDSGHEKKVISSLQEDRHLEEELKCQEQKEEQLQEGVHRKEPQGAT
T3 sequence (P08637 17-254): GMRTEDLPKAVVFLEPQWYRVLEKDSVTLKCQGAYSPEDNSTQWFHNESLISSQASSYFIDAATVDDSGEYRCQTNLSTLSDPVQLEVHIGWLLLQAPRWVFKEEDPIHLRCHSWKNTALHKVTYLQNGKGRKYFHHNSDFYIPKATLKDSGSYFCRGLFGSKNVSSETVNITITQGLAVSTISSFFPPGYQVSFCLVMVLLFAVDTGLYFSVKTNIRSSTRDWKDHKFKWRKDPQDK

Substance: SGN-B7H4V: ADC of fully human IgG1 anti-B7-H4 mAb conjugated to monomethyl auristatin E (MMAE) via a protease-cleavable valine-citrulline linker (vedotin)
- lysis (CDC) [1]: did not induce lysis
- human gene categories related to apoptosis/programmed cell death pathways ([2]; compared to B7H41001 mAb-DM1): elevated
- mouse immune-related GO terms ([2]; compared to B7H41001 mAb-DM1): increased
- human gene categories related to the immune response ([2]; compared to B7H41001 mAb-DM4): elevated
- mouse immune-related gene categories ([2]; compared to B7H41001 mAb-DM4): elevated
- FcγRI-mediated luciferase activity (FcγRI): dose-dependent increase
- FcγRIIa-mediated luciferase activity (FcγRIIa): not FcγRIIa-mediated luciferase activity
- FcγRIII-mediated luciferase activity (FcγRIII): dose-dependent increase
- binding affinities for hB7-H4 [3]: similar
